pIC50: −log10 of the molar value.
Columns and labels:
CYP1A = assay: Cytochrome P450 induction assay in rat primary hepatocytes, CYP1A; format: in vitro ADME; conditions: for Fold induction CYP1A: 3 days; for % of positive control CYP1A: positive control 3-methyl cholanthrene 1.0 μM
Excerpt: %Activity=(averagearearatiooftreated/averagearearatioofbasalcontrol)x100

CYP 1A2 = biological target: T1, CYP 1A2 (Homo sapiens, UniProt P05177); assay: CYP450 inhibition assay, pooled human liver microsomes; format: in vitro ADME; conditions: probe phenacetin
T1 construct: tissue Sekisui Xeno Tech, LLC; host or cells: pooled human liver microsomes
T1 sequence (P05177 1-516): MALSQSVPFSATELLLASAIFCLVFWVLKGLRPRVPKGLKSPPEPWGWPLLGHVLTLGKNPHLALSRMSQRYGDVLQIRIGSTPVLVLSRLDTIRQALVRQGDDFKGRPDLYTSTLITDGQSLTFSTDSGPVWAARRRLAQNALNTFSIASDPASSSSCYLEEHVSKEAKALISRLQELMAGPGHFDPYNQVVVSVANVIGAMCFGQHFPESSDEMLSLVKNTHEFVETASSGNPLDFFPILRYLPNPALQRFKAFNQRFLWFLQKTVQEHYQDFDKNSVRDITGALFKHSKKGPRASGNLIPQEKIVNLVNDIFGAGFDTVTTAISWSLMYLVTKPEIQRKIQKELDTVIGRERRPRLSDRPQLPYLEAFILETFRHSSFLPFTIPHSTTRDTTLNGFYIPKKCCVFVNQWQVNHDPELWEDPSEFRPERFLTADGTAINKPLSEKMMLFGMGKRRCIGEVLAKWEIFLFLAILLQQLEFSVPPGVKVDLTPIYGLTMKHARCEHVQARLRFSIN
Experimental: (§1) In the CYP inhibition assay, human liver microsomes were incubated with the Cu(II) complex or reference standard. The inhibitory effects of these compounds were investigated against the major CYP isoforms namely 1A2, 2C9, 2C19, 2D6, 2B6, 2C8 and 3A4 with their respective isoform probe substrates in one reaction mixture (pooled probe substrate format using LC-MS/MS).
(§2) Pooled human liver microsomes (Sekisui Xeno Tech, LLC., Kansas City, KS, USA) were incubated with different concentrations of Cu(II) complex or reference standards in buffer containing 0.1% DMSO for 10 min at 37°C and the residual enzyme activity was measured using pooled probe substrates method by pooled LC-MS/MS. Briefly, incubation mixtures were prepared in a total volume of 200 μL with final component concentrations as follows: 0.1 M potassium phosphate buffer (pH 7.4), 1.5 mM NADPH, and 0.25 mg/ml HLM. […] After 20 min of incubation, the reactions were terminated by addition of 200 μL ice-cold acetonitrile (Rankem, Avantor Performance Materials India Limited, Andhra Pradesh, India) containing telmisartan and carbamazepine as internal standards (all probe substrates and standards were from Sigma Aldrich). Each reaction mixture was centrifuged at 3,500 rpm for 5 min and the supernatant was subjected to LC-MS/MS analysis. The percent inhibition was calculated using the following equation: %Inhibition=100‑[(activityintestwells/activityinbasalcontrolwells)×100]

CYP 3A4 = biological target: T2, CYP 3A4 (Homo sapiens, UniProt P08684); assay: as above; format: in vitro ADME; conditions: probe midazolam
T2 construct: tissue Sekisui Xeno Tech, LLC; host or cells: pooled human liver microsomes
Experimental: as §1, §2

HK1 xenograft = assay: In vivo efficacy in HK1 xenograft model; parameters: species or system NOD scid gamma female mice
Experimental: Recognizing the relative lack of treatment options for advanced NPC compared to other major cancers in Malaysia and based on our previous finding of the anticancer activity against NPC cells, we proceeded to validate the anticancer properties of the Cu(II) complex in vivo using NPC xenograft models. To test the compound in vivo in the preclinical models, two pilot studies were carried out using the Cu(II) complex. First, the effects of the Cu(II) complex were investigated on HK1 xenograft bearing mice at three different dosage regimens (4, 6 and 8 mg/kg). […] Even though treatment with Cu(II) complex at 8 mg/kg every other day up to 3 doses was effective, 2 out of 7 mice were found deadand the experiment had to be terminated.
2.0 x 10^6 HK1 or C666-1-GFP-Luc2 cells in 100 μl RPMI media mixed with matrigel (BD Matrigel Basement Membrane Matrix; BD Biosciences, Bedford, MA, USA) was inoculated subcutaneously into the right lower flank of the NSG mice. Tumor growth was monitored and measured every other day using a digital caliper (Mitutoyo America Corporation, Aurora, Illinois, USA) until they reached 100–250 mm^3. Then, the mice were randomly assigned into treatment groups. The mice bearing HK1 xenograft tumor were divided into 3 treatment groups and a control (normal saline) group. The first batch received normal saline (one injection daily for 5 days), 6 mg/kg (one injection daily for 5 days) and 8 mg/kg (one injection every other day for 3 doses) of Cu(II) complex while the second batch received normal saline (one injection daily for 4 days), 4 mg/kg (one injection daily for 4 days), 6 mg/kg (one injection daily for 4 days) and 8 mg/kg (one injection every other day for 2 doses) of Cu(II) complex via intraperitoneal route.

T2 sequence (P08684 whole entry): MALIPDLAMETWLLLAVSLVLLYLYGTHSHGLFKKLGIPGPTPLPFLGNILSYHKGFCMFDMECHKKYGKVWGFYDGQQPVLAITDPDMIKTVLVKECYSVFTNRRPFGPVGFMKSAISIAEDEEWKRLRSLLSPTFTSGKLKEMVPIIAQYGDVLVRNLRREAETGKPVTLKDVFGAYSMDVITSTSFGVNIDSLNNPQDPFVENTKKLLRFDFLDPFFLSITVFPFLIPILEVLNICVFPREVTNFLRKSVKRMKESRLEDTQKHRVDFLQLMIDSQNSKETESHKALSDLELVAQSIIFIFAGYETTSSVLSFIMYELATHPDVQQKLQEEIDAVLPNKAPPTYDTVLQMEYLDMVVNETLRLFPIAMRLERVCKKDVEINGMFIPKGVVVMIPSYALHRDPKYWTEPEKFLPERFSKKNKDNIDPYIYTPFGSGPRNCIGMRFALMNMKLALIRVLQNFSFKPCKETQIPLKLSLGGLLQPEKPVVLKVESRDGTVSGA

CC(C)(N)C(=O)[O-].O.O=[N+]([O-])[O-].[Cu+2].c1cnc2c(c1)ccc1cccnc12 [Cu(II) complex, [Cu(phen)(C-dmg)(H2O)]NO3]
Fold induction CYP1A (CYP1A; 0.1 μM): 1.1 | % of positive control CYP1A (CYP1A; 0.1 μM): 10.1% | Fold induction CYP1A (CYP1A; 0.3 μM): 1.4 | % of positive control CYP1A (CYP1A; 0.3 μM): 13.0% | Fold induction CYP1A (CYP1A; 1.0 μM): 0.8 | % of positive control CYP1A (CYP1A; 1.0 μM): 7.4% | induction, % of positive control, CYP1A (CYP1A; 0.1-1.0 μM): < 13% | pIC50 (CYP 1A2): 5.10 | pIC50 (CYP 3A4): 5.26 | mice found dead (HK1 xenograft; 8 mg/kg every other day up to 3 doses): 2 out of 7 | tumor growth (HK1 xenograft; 4, 6 and 8 mg/kg ip): significantly inhibited the growth of HK1 tumor | tolerability / body weight (HK1 xenograft; 4 and 6 mg/kg dose regimens): well tolerated with no significant body weight loss | Histopathological examination of heart, liver, kidney and lung (HK1 xenograft; all the groups): did not show any remarkable changes | weight of vital organs (HK1 xenograft; all treatment groups vs control): not significantly affected

— paper PMC5766233, “Ternary copper(II) complex: NCI60 screening, toxicity studies, and evaluation of efficacy in xenograft models of nasopharyngeal carcinoma” (PLoS ONE, 2018)
